Source: ChEMBL document CHEMBL1201862, “PubChem BioAssay data set” (2004)
Calls of active or inactive are those of the source.

Experiments:
[1] = Counterscreen for inhibitors of Trypanosoma brucei methionyl tRNA synthetase (MetRS): Luminescence-based cell-based high throughput dose response assay to identify compounds that are cytotoxic to Jurkat human T lymphocyte cells.; assay type: functional
[2] = biological target: Fructose-bisphosphate aldolase (Mycobacterium tuberculosis, UniProt P9WQA3); test: Fluorescence-based biochemical high throughput dose response assay for inhibitors of the fructose-bisphosphate aldolase (FBA) of M. tuberculosis.; assay type: functional
Chain of Fructose-bisphosphate aldolase (P9WQA3 whole entry, the tested form may be a part): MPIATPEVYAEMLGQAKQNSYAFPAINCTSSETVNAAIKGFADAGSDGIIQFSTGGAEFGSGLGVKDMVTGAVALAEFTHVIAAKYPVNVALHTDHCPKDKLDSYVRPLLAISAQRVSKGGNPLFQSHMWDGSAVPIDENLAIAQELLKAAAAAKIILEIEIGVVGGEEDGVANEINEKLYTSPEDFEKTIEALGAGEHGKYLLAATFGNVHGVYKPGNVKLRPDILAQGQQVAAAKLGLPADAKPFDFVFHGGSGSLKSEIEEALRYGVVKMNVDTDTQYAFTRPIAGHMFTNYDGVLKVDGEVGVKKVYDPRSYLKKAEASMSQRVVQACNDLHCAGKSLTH

[3] = CEM21 lymphoblast cell cytotoxicity, dose response, cytotoxicity control for viral fusion inhibitor project, CellTiter-Glo luminescence, cherry-picked (AID 652042); assay type: functional, cell-based;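 further: potency for signal decrease meaning cytotoxicity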
[4] = inhibitors of clade B AD8 Env fusion, dose response, cell-based, cherry-pick (AID 652062); assay type: functional;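 further: luciferase signal from cell-cell fusion driven by HIV-1 clade B AD8 Env; potency is for inhibitors of fusion seen as a drop in luminescence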
[5] = off-target signal loss in HeLa-CEM21 co-culture – HeLa F-luc CTL cells, cherry-picked, counter-screen for HIV-1 Env fusion inhibitor project, dose response (AID 652040); assay type: functional, cell-based;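 further: potency for signal decrease marking cytotoxic or nonspecific inhibition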
[6] = HeLa cell cytotoxicity, dose response, cytotoxicity control for MgcRacGAP inhibitor project (AID 624300); assay type: functional
[7] = inhibitors of HIV Env-driven cell fusion, dose response, cherry-pick (AID 652057); assay type: functional, cell-based
[8] = ZM109 Env clade C HIV-1 fusion inhibitors, dose response, HeLa effector, CEM target cells, luciferase, cherry-pick (AID 652058); assay type: functional, cell-based
[9] = biological target: T1, Sentrin-specific protease 1 (Homo sapiens, UniProt Q9P0U3); test: potency of human SENP1 inhibitors, dose response, biochemical, kinetic FRET (AID 651697); assay type: functional; conditions: read-out: IC50_Mean
T1 sequence (Q9P0U3 whole entry): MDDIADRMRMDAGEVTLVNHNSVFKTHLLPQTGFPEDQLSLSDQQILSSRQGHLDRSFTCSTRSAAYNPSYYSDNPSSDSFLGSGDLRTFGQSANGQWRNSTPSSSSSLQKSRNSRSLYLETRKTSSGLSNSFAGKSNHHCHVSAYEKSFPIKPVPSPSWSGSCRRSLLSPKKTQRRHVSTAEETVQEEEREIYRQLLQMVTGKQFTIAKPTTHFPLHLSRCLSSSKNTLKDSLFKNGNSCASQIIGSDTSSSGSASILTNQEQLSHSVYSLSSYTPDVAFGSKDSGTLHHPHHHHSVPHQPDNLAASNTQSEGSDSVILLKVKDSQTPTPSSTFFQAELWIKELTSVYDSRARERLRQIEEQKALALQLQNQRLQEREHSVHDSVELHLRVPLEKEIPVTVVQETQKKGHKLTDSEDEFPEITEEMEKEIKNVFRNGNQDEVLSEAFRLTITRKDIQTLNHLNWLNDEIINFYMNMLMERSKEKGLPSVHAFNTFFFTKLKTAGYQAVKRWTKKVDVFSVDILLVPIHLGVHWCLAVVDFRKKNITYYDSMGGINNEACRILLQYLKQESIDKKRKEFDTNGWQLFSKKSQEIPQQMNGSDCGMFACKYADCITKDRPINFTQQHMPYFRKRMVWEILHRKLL

[10] = biological target: T1, Sentrin-specific protease 1; test: Dose response confirmation of small molecule inhibitors of the catalytic domain of the SUMO protease, SENP1 in a FRET assay.; assay type: functional; conditions: read-out: IC50_Mean
[11] = biological target: T2, Probable nicotinate-nucleotide adenylyltransferase (Staphylococcus aureus (strain N315), UniProt P65502); assay type: functional, Staphylococcus aureus subsp. aureus N315; conditions: read-out: IC50_Mean;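 on IC50 Mean: confirmatory dose-response retesting of NadD inhibitor hits first found in an ultra-high-throughput screen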
T2 sequence (P65502 whole entry): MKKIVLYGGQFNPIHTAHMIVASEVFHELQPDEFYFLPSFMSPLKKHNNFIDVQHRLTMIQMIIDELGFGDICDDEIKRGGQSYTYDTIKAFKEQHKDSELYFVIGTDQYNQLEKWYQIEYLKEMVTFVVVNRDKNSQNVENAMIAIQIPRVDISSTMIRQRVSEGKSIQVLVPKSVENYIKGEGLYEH

[12] = biological target: DNA damage-inducible transcript 3 protein (Mus musculus, UniProt P35639); assay type: functional, Cricetulus griseus
Chain of DNA damage-inducible transcript 3 protein (P35639 whole entry, the tested form may be a part): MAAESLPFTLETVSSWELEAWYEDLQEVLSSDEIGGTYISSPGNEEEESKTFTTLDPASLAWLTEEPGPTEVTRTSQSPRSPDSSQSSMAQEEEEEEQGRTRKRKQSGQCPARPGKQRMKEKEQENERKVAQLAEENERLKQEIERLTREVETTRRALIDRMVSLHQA

[13] = biological target: T3, Disintegrin and metalloproteinase domain-containing protein 17 (Homo sapiens, UniProt P78536); test: ADAM17 protease inhibitors, dose response, counter-screen for ADAM10 exosite inhibitor project, biochemical, quenched FRET substrate (AID 743253)
T3 sequence (P78536 whole entry, the tested form may be a part): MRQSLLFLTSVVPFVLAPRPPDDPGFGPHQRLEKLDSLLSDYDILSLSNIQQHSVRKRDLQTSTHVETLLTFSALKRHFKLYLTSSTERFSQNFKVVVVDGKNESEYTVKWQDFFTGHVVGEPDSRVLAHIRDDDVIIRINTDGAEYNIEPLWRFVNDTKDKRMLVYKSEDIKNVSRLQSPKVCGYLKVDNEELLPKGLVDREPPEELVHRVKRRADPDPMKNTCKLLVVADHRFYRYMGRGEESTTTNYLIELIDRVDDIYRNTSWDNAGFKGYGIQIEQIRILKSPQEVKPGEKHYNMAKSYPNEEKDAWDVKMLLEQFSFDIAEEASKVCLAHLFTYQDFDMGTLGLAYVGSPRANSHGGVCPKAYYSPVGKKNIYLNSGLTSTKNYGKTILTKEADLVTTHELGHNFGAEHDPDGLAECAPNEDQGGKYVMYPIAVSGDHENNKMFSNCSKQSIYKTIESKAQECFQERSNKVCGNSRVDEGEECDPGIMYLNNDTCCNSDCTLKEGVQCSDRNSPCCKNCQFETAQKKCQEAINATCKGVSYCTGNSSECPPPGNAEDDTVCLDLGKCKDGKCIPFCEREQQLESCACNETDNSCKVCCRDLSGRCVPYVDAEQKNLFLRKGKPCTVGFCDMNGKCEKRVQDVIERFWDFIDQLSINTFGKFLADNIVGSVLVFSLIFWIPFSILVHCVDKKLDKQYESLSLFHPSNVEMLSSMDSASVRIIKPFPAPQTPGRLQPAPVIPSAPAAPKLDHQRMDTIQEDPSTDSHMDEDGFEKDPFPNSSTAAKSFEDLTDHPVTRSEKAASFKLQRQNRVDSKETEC

[14] = ADAM10 inhibitors, peptide cleavage, dose response, biochemical, QFRET (AID 743254);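 further: ADAM10 enzyme with the DM2 quenched FRET peptide as substrate; EDANS fluorescence gain as the protease cuts the substrate; inhibitor potency against ADAM10 proteolytic activity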
[15] = ADAM10 protease inhibitors, dose response, selectivity assay for ADAM17 exosite inhibitor project, biochemical, FRET peptide substrate, recombinant human ADAM10 (AID 743259);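 further: ADAM10 enzyme cleaving a FRET peptide substrate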
[16] = biological target: T4, Latent membrane protein 1 (Human herpesvirus 4 (strain B95-8), UniProt P03230); test: TES1-eGFP NF-kB reporter inhibition versus Tet-On dsRED, dose response, selectivity assay for LMP1 NF-kB inhibitor project, imaging, HEK293T, dual-color eGFP/dsRED, cherry-picks (AID 588398); assay type: functional, cell-based
T4 sequence (P03230 whole entry): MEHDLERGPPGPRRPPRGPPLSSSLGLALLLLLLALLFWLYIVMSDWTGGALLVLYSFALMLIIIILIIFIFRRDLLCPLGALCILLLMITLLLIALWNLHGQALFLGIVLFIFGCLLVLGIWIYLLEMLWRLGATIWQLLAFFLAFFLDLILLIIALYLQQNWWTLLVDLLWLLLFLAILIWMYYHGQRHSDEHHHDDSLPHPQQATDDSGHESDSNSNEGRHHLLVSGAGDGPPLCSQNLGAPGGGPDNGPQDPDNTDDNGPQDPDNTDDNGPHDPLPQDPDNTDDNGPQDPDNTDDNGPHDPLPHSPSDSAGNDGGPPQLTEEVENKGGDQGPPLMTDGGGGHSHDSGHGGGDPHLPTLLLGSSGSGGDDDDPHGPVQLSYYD

[17] = biological target: T2, Probable nicotinate-nucleotide adenylyltransferase; assay type: functional, Staphylococcus aureus subsp. aureus N315
[18] = biological target: T3, Disintegrin and metalloproteinase domain-containing protein 17; test: exosite inhibitors of ADAM17, dose response, biochemical (AID 743260)
Albumin = Albumin (Bos taurus, UniProt P02769); test: Counterscreen for inhibitors of T-cell receptor (TCR)-CD3 interaction: Fluorescence-based biochemical high throughput dose response assay to identify inhibitors of T-cell receptor (TCR)-CD3 interaction using a TAMRA-labeled BSA probe.; assay type: functional
Chain of Albumin (P02769 whole entry): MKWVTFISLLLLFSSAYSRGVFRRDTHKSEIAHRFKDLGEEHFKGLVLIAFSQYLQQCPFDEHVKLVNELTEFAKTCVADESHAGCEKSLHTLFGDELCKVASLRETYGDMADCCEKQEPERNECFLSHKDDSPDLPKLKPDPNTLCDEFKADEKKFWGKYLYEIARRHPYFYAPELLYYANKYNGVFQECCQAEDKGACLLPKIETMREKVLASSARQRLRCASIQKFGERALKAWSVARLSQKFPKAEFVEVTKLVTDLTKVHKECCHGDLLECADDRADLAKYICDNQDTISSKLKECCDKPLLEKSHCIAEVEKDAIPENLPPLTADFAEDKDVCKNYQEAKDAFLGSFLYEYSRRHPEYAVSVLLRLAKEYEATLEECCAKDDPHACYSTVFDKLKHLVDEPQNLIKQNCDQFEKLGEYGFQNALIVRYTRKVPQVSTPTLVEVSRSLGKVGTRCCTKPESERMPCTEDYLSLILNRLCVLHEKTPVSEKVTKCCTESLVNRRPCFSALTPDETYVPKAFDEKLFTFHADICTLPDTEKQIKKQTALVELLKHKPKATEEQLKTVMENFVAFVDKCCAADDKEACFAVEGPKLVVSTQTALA

HeLa = test: HeLa cell cytotoxicity, dose response, cytotoxicity control, ATP luminescence, cherry-pick samples (AID 687004); assay type: functional, cell-based; conditions: Homo sapiens
[19] = biological target: T5, Corticotropin-releasing factor receptor 2/Corticotropin-releasing factor-binding protein (Homo sapiens, UniProt P24387+Q13324); test: activators of CRF receptor 2 with binding protein – uHTS hits, confirmation (AID 602473); assay type: functional; conditions: read-out: EC50_Mean
T5 sequence (Q13324 whole entry): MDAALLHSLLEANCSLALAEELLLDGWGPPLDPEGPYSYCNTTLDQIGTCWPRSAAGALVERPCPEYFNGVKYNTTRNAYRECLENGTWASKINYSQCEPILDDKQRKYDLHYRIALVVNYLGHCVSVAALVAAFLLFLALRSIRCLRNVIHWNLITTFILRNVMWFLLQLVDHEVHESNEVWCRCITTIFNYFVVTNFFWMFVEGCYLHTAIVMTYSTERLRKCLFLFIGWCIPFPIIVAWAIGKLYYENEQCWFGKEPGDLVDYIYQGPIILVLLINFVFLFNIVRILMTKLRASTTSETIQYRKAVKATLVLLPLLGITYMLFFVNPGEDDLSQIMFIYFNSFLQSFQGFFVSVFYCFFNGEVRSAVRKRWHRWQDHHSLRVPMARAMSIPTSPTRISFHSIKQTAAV
T5 sequence (P24387 whole entry): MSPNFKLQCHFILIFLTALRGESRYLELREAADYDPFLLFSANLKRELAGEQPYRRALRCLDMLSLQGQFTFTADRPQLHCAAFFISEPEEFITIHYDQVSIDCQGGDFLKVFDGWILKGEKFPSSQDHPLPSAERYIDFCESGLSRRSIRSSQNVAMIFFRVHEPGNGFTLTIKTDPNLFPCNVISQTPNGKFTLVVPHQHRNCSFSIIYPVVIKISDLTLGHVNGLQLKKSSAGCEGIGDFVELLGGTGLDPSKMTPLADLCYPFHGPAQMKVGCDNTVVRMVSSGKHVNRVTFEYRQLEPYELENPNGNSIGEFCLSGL

[20] = biological target: T5, Corticotropin-releasing factor receptor 2/Corticotropin-releasing factor-binding protein; test: Dose Response confirmation of uHTS hits for small molecule antagonists of the CRF-binding protein and CRF-R2 receptor complex.; assay type: functional; conditions: read-out: IC50_Mean
[21] = biological target: T6, Methionyl-tRNA synthetase, putative (Trypanosoma brucei brucei, UniProt Q38C91); assay type: functional, Trypanosoma brucei brucei strain 927/4 GUTat10.1;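 further: Read-out by fluorescence polarization, run as a confirmatory high-throughput counterscreen; potency of MetRS inhibitors measured by reduced AMP formation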
T6 sequence (Q38C91 whole entry): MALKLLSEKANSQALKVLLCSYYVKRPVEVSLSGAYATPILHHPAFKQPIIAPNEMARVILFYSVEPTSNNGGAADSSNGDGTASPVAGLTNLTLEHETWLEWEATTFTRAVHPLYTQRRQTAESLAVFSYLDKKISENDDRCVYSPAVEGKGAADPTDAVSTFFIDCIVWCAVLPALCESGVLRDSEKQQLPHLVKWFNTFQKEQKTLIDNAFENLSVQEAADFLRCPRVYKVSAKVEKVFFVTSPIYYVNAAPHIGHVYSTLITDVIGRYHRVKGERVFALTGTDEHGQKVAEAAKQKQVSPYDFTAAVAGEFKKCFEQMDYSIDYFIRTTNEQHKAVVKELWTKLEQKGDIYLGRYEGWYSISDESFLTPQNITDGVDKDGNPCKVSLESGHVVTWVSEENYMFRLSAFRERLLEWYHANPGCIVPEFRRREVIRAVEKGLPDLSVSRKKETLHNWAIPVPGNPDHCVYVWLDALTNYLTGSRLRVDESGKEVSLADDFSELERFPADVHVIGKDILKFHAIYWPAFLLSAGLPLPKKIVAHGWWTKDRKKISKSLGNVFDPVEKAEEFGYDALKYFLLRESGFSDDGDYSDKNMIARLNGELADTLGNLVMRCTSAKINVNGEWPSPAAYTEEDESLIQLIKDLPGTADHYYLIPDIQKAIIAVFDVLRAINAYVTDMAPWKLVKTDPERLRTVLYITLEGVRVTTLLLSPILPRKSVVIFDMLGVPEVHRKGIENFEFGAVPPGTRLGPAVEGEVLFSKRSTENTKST

Question: For O=C(CSc1nc2cc(Cl)ccc2[nH]1)c1c[nH]c2ccccc12, which IC50 [1] is on record?
Answer: 83.3 µM (inactive)

Question: With N#CC1=C(C2CC2)CC(c2ccccc2)C(C#N)=C1N (stereo not drawn) as the molecule, how does the IC50 [2] read?
Answer: > 10 µM (inactive)

Question: With CCc1ccc(CNCCc2c[nH]c3ccccc23)cc1 as the molecule, how does the AC50 [3] read?
Answer: 31.7 µM (active)

Question: And the AC50 [4]?
Answer: 12.2 µM (active)

Question: And the AC50 [5]?
Answer: 6.36 µM (active)

Question: What about the CC50 [6] of the same molecule?
Answer: 100 µM (active)

Question: And the AC50 [7]?
Answer: 4.4 µM (active)

Question: And the AC50 [8]?
Answer: 4.01 µM (active)

Question: What does the source list for COc1ccc(/C=N/N2C(=O)CSC2=S)cc1Br?
Answer: IC50 [9]: 19.3 µM (active); IC50 [10]: 9.69 µM (active)

Question: Which results are given for COc1ccccc1NC(=O)c1c(Nc2ccccc2C)sc(C(=O)Nc2cccc(Cl)c2)c1N?
Answer: IC50 [11]: 80 µM (inactive); Absolute IC50 (CHOP) [12]: 10 µM; IC50 [13]: > 69.5 µM (inactive); IC50 [14]: > 7.73 µM (active); IC50 [15]: > 69.5 µM (inactive); AC50 [16]: 21.3 µM (active); IC50 [17]: 26 µM (active); IC50 [18]: > 69.5 µM (inactive)

Question: With O=C(NNC(=S)NC(=O)c1cccc([N+](=O)[O-])c1)c1ccc(O)cc1 as the molecule, how does the IC50 (Albumin) read?
Answer: > 94 µM (inactive)

Question: With COC(=O)C1=C(C)N(Cc2ccccc2)C(=S)N[C@H]1c1cccc(F)c1 as the molecule, how does the AC50 (HeLa) read?
Answer: > 52 µM (inactive)

Question: And the EC50 [19]?
Answer: > 53 µM (inactive)

Question: What about the IC50 [20] of the same molecule?
Answer: > 47.1 µM (inactive)

Question: For O=C(CSc1nc2ccc(Cl)cc2[nH]1)c1c[nH]c2ccccc12, which IC50 [21] is on record?
Answer: 39.5 µM (inactive)

Question: With COc1cc(C(O)c2nc(-c3ccc4ccccc4c3)cs2)ccc1F (stereo not drawn) as the molecule, how does the IC50 [13] read?
Answer: > 69.5 µM (inactive)

Question: And the IC50 [14]?
Answer: 10.4 µM (inactive)

Question: Which IC50 [9] does the source give for CC1=C(C(N)=O)S(=O)(=O)c2ccccc21 here?
Answer: 19.6 µM (active)

Question: And the IC50 [10]?
Answer: 23 µM (inactive)

Question: For CCCC(C(=O)Nc1ccc2c(C)cc(=O)oc2c1)c1ccccc1 (stereo not drawn), which IC50 [2] is on record?
Answer: 1.23 µM (active)
